According to patent publication US7736856B2, “Method of screening drug with the use of 67 kDa laminin receptor and drug obtained thereby” (Kyushu TLO Company, Limited, priority 2003, dated 2010):

Legend:
[1] = system: 67LR forced expression cells (A549); assay: Cell growth test (cell count, Tripanblue staining) on 67LR transient expression A549 cells; format: cell-based, human; conditions: for number of the cells / growth inhibiting effect (influence of 67LR gene introduction) / survival rate (influence of 67LR gene introduction): 5 μM, 0.5 μg pTARGET-hLamininR in A549 cells; for survival rate (influence of 67LR gene introduction): Tripanblue staining
Experimental: The 67LR expression vector constructed (pTARGET-hLamininR) was introduced into A549 cells, using FuGENE™ 6 Transfection Reagent. Its details are described below. The cells were inoculated into a 10% FBS-ERDF medium at 1×10^4 cells/ml. By keeping at 37° C. for 24 hours, the cells were adhered to the medium. Next, a fresh ERDF medium was put into a tube, and FuGENE™ 6 (three times the amount of the gene) was directly added and gently mixed. Next, pTARGET-hLamininR was added and gently mixed, and this was kept at room temperature for 30 minutes. This was added to the medium, and kept at 37° C. for 48 hours. The cells were washed with a medium, and then the medium was changed with a fresh one.
(§1) Various components of various concentrations were added to the 67LR transient expression cells, and treated in a 5% FBS-containing ERDF medium at 37° C. for 48 hours. After the treatment, the number of the cells was counted, and the survival rate of the cells was determined according to a Tripanblue staining method.
Using FuGENE™ 6 Transfection Reagent, a 67LR expression vector (pTARGET-hLamininR) was introduced into A549 cells according to the method mentioned below. The cells were inoculated at 1×10^4 cells/ml (10% FBS-ERDF medium). After 24 hours, a fresh ERDF medium was put into a tube, and FuGENE™ 6 (three times the amount of the gene) was directly added and gently mixed. Next, pTARGET-hLamininR of varying concentrations were added and gently mixed, and this was kept at room temperature for 30 minutes. This was added to the medium, and was continuously cultured at 37° C. for 48 hours. EGCG of various concentrations were added to the 67LR transient expression cells, and treated with a 5% FBS-containing ERDF medium at 37° C. for 48 hours. After the treatment, the number of the cells was counted and the survival rate thereof was determined according to a Tripanblue staining method.
First, the influence of the substances on the growth of 67LR forced expression cells was investigated. Similarly to the above, 0.5 μg of pTARGET-hLamininR was introduced into A549 cells by the lipofection method, followed by cultivation at 37° C. for 48 hours. Then, the cells were treated with various tea components each having a final concentration of 5 μM. The cells were further cultivated at 37° C. for 48 hours, and then the number of the cells and the survival rate thereof were determined.

[2] = molecular target: T1, 67LR forced expression cells (A549 with 67LR expression vector) (Homo sapiens, UniProt P08865); assay: Binding to 67LR forced expression cells by surface plasmon resonance sensor; conditions: for change of cell binding in 67LR forced expression cells: surface plasmon resonance biosensor, 5 μM; for angle change (binding amount): EGCG 5 μM
T1 construct: expressed in transfected cells; host or cells: A549 cells, transient transfection with pTARGET-hLamininR (FuGENE 6)
Experimental: (§2) The binding of various component (5 μM) to the cells was determined by using a surface plasmon resonance sensor SPR670 (Nippon Laser and Electronic Lab., Nagoya, Japan). For the measurement, the cells were fixed on a gold membrane (Nippon Laser and Electronic Lab.) according to a standard fixation method for protein. Precisely, a gold membrane was dipped in a solution in ethanol of […] of 4,4-dithiodibutyric acid, DDA (Tokyo Kasei Kogyo Co., Ltd., Tokyo, Japan) (this was prepared by dissolving 2.38 mg of DDA in 10 ml of 99% ethanol followed by diluting it with ethanol to 1/100) in such a manner that its gold surface could face upward, and gently stirred at room temperature for 30 minutes. Next, this was washed twice with ethanol with no pressure applied to the gold surface to thereby introduce a self-assembly membrane (SA membrane). 25 mg of a water-soluble carbodiimide, EDC (Wako Pure Chemicals) was dissolved in 1 ml of ultra-pure water; and 15 mg of N-hydroxysuccinimide, NHS (Wako Pure Chemicals) was dissolved in 9 ml of 1,4-dioxane (Nacalai Tesque, Inc.). These solutions were mixed, and the SA membrane-processed gold membrane was dipped into the mixture, and gently stirred at room temperature for 10 minutes. 10 ml of ultra-pure water was added, and further stirred at room temperature for 5 minutes. This was washed twice with ultra-pure water with no water pressure applied to the gold surface thereof, then dried (in air), and mounted on a cartridge. The cells were suspended to a density of 3×10^5 cells/ml (in a flow buffer, PBS), and 20 μl of the cell suspension was dropwise applied onto the gold membrane and kept at room temperature for 30 minutes so as to fix the cells onto the membrane. Next, a green tea catechin diluted with PBS to have a concentration of 1, 10, 25 or 50 μM was applied thereto, and the change in the surface plasmon resonance angle was determined so as to monitor its binding to the cells.
(§3) 67LR is a membrane protein existing in a cell membrane, and the fact that the EGCG effect was enhanced in the cells with the gene expression vector introduced therein would be due to the increase in the EGCG binding. Accordingly, the EGCG binding to the cells was determined by the sue of a surface plasmon resonance sensor. EGCG was used at 5 μM.

A549 cells = assay: Binding to A549 cells (empty vector / parent) by surface plasmon resonance sensor; set-up: species or system human; conditions: for cell binding to A549 cells: surface plasmon resonance biosensor, 5 μM
Experimental: as §2, §3

67LR on cell surfaces = 67LR on cell surfaces (Homo sapiens, UniProt P08865); assay: Flow cytometry: influence of EGCG treatment on detection of cell surface 67LR by anti-67LR antibody; format: binding
Experimental: It is known that 67LR is expressed on cell surfaces. Therefore, 67LR expressed on the surfaces of the cells was detected through flow cytometry analysis using an anti-human laminin receptor (LR) antibody. The cells were collected, and using a 1.5-ml Eppendorf tube, they were added to 100 μl, as a whole, of 1% FBS-PBS at 1×10^6 cells therein. A primary antibody, anti-human LR antibody was added to it to have a final concentration of 10 μg/ml. This was incubated at 4° C. for 30 minutes, and then washed once with PBS. Next, a secondary antibody, anti-mouse IgM FITC-labeled antibody capable of recognizing an isotype of LR antibody was added to 25 μl, as a whole, of 1% FBS-PBS so as to have a final concentration of 12.5 μg/ml. This was incubated at 4° C. for 30 minutes, then washed twice with PBS, and re-suspended in PBS, and analyzed with a flow cytometer. A negative control IgM antibody of the same concentration (10 μg/ml) was reacted in the same manner as herein. The 67LR expression amount on the cell surfaces was indicated by the center value of the fluorescent intensity of LR.
For the purpose of investigating the influence of EGCG treatment on the cell surface expression of 67LR, the cells were treated with an EGCG-added 1% FBS-PBS having a final EGCG concentration of 50 μM, and then kept at 37° C. for 30 minutes. This was washed once with PBS. Then, this was treated in the same manner as above with the primary antibody and others, and analyzed. As a control, the cells were treated with an EGCG-free 1% FBS-PBS.

[3] = molecular target: T2, 67LR forced expression cells (Homo sapiens, UniProt P08865); assay: Binding competition test of EGCG and anti-67LR antibody (surface plasmon resonance sensor); conditions: cells pretreated with anti-67LR antibody 10 μg/ml, 37° C., 30 minutes
T2 construct: expressed in transfected cells; host or cells: A549 cells, transient transfection with pTARGET-hLamininR (FuGENE 6)
Experimental: as §2, with “These solutions were mixed, and the SA membrane-processed gold membrane was dipped into the mixture, and gently stirred at room temperature for 10 minutes. 10 ml of ultra-pure water was added, and further stirred at room temperature for 5 minutes. This was washed twice with ultra-pure water with no water pressure applied to the gold surface thereof, then dried (in air), and mounted on a cartridge. The cells were suspended to a density of 3×10^5 cells/ml (in a flow buffer, PBS), and 20 μl of the cell suspension was dropwise applied onto the gold membrane and kept at room temperature for 30 minutes so as to fix the cells onto the membrane.” left out, “cells. […]” for “cells.”

[4] = molecular target: T2, 67LR forced expression cells; assay: Growth inhibition by EGCG after anti-67LR antibody pretreatment of 67LR forced expression cells; format: cell-based
Experimental: as §1
Regarding […] pretreatment, an anti-67LR antibody having a final concentration of 10 μg/ml (1% FBS-containing ERDF medium) was treated at 37° C. for 30 minutes, and then EGCG treatment was carried out so as to investigate the influence thereof on the antibody-treatment cells. As a negative control, the same treatment was carried out with mouse IgM.

Row | Compound | number of the cells / growth inhibiting effect (influence of 67LR gene introduction) ([1]; 48 hours) | change of cell binding in 67LR forced expression cells [2] | cell binding to A549 cells (A549 cells) | survival rate (influence of 67LR gene introduction) ([1]; 48 hours) | also measured
1 | O=C(O[C@@H]1Cc2c(O)cc(O)cc2O[C@@H]1c1ccc(O)c(O)c1)c1cc(O)c(O)c(O)c1 [ECG, epicatechin-3-O-gallate] | increase in the growth inhibiting effect | cell binding increased | showed cell binding though not comparable to that of EGCG |  | 
2 | Oc1cc(O)c2c(c1)O[C@H](c1cc(O)c(O)c(O)c1)[C@H](O)C2 [EGC, epigallocatechin] | no influence | no change | no binding | no influence | 
3 | COc1cc(C(=O)O[C@@H]2Cc3c(O)cc(O)cc3O[C@@H]2c2cc(O)c(O)c(O)c2)cc(O)c1O [EGCG3″Me, epigallocatechin-3-(3-O-methyl)-gallate] | increase in the growth inhibiting effect | cell binding increased | showed cell binding though not comparable to that of EGCG |  | 
4 | Cn1c(=O)c2c(ncn2C)n(C)c1=O [caffeine, Caffeine] | no influence | no change | did not show cell binding |  | 
5 | O=c1c(O)c(-c2ccc(O)c(O)c2)oc2cc(O)cc(O)c12 [quercetin] | no influence | no change | did not show cell binding | no influence | 
6 | catechin | no influence | no change | no binding | no influence | 
7 | epigallocatechin-3-O-gallate [EGCG] | increase in the growth inhibiting effect |  |  |  | growth inhibiting activity ([1]; EGCG 0.1 μM, 67LR forced expression cells): showed its growth inhibiting activity; cell growth inhibition ([1]; EGCG of various concentrations, 67LR transiently expressed A549 cells, 5% FBS ERDF, 37° C., 48 hours): concentration-dependent cell growth inhibition was observed; cell growth inhibition versus 67LR gene amount introduced ([1]; pTARGET-hLamininR of varying concentrations, EGCG, 48 hours): in proportion to the 67LR gene amount introduced into the cells, cell growth inhibition was also observed; angle change (binding amount) ([2]; cells with 0.25 μg of 67LR expression vector): a great increase in the angle; angle change (binding amount) ([2]; cells with 0.5 μg of 67LR expression vector): a further greater increase in the angle; angle change (binding amount) (A549 cells; EGCG 5 μM, A549 cells with empty vector): Only a little angle change; apparent 67LR expression detected by anti-67LR antibody after EGCG (67LR on cell surfaces; EGCG 50 μM before antibody, 67LR-introduced cells): it was the same; apparent 67LR expression detected by anti-67LR antibody after EGCG (67LR on cell surfaces; EGCG 50 μM before antibody, cells with empty vector): The same phenomenon was found; apparent 67LR expression detected by anti-67LR antibody after EGCG (67LR on cell surfaces; EGCG 50 μM, 37° C., 30 minutes before antibody, control A549 cells): apparently disappeared; EGCG binding amount (angle change) [3]: reduction; EGCG binding speed [3]: reduction; survival rate ([4]; EGCG with or without antibody pretreatment, Tripanblue staining): no influence on the survival rate was found; growth inhibiting activity after antibody treatment ([4]; anti-67LR antibody treatment before EGCG): the growth inhibiting activity was lost
